The text below walks through data of patent publication US10227370B2, “Heparan sulfate/heparin mimetics with anti-chemokine and anti-inflammatory activity” (California Institute of Technology, priority 2013, dated 2019).

Holding throughout (format): biochemical
For assay [1], the system named is citrated human plasma. The assay is described as follows: Activated partial thromboplastin time (APTT) analysis. The protocol: Plasma/anticoagulant samples were prepared by mixing 300 μL of the heparin standard or glycopolymer (150 μg/mL) in 0.9% saline and 2.7 mL of citrated human plasma. The tube was inverted 3 times to mix the sample thoroughly. Samples were analyzed by the UCLA Clinical & Translational Research Laboratory using a Sysmex® CA-1500 Coagulation Analyzer (Siemens AG, Erlangen, Germany). Clotting time in the absence of an anticoagulant was determined using 0.9% saline solution water (300 μl). Each clotting assay was performed in triplicate.

Assay [2] has as its system citrated human plasma. The assay is described as follows: Prothrombin time (PT) analysis. The note with it: 150 μg/mL stock, 300 μL in 2.7 mL citrated human plasma; saline control 13.3 s. The protocol:
Samples were prepared by mixing 300 μL of the heparin standard or glycopolymer (150 μg/mL) in 0.9% saline with 2.7 mL citrated human plasma. The tube was inverted 3 times to mix the sample thoroughly. Samples were analyzed by the UCLA Clinical & Translational Research Laboratory using a Sysmex® CA-1500 Coagulation Analyzer (Siemens AG, Erlangen, Germany). Clotting time in the absence of an anticoagulant was determined using 0.9% saline solution water (300 μL). Each clotting assay was performed in triplicate.

Assay [3] relates to FXa. Put plainly: Chromogenic assay of anti-FXa activity in the presence of ATIII, Example 9. How it is done: All reagents were prepared according to the manufacturer's instructions and incubated at 37° C. for 15 min. Varying concentrations of heparin, low molecular weight heparin, Arixtra® or glycopolymers (0.0005-500 μg/mL; 40 μL) and ATIII (0.04 IU; 40 μL) were added to a microcentrifuge tube, mixed, and incubated at 37° C. for 2 min. To this, FXa (0.32 μg; 40 μL) was added and was incubated at 37° C. for exactly 2 min (stage 1), then FXa chromogenic substrate (48 μmol; 40 μL) was added. Exactly 2 min later (stage 2), the reaction was stopped by introducing citric acid (240 μL; 20 g/L solution). Absorbance at 405 nm was measured on a Uvikon XL spectrophotometer. The sample blank was obtained by mixing the reagents in reverse order from that of the test, i.e. citric acid, FXa substrate, FXa, ATIII, and heparinized sample. The sample blank value was deducted from the absorbance measured for the corresponding assay.

The target of assay [4] is T1, FIIa (Homo sapiens, UniProt P01008).
T1 construct: purchased
The assay is described as follows: Chromogenic assay of anti-FIIa activity in the presence of ATIII, Example 9. The note with it: FIG. 12, FIG. 13B. The protocol: All reagents were prepared according to the manufacturer's instructions and incubated at 37° C. for 15 min. Varying concentrations of heparin, low molecular weight heparin, or glycopolymers (0.0005-500 μg/mL; 40 μL) and ATIII (0.01 IU; 40 μL) were added to a microcentrifuge tube, mixed, and incubated at 37° C. for 2 min. To this, FIIa (1.2 nkat; 40 μL) was added and was incubated at 37° C. for exactly 2 min (stage 1), then FIIa chromogenic substrate (0.05 mmol; 40 μL) was added. Exactly 2 min later (stage 2), the reaction was stopped by introducing citric acid (240 μL; 20 g/L). Absorbance at 405 nm was measured. The sample blank was obtained by mixing the reagents in reverse order from that of the test, i.e. citric acid, […], ATIII, and heparinized sample. The sample blank value was deducted from the absorbance measured for the corresponding assay.

SMILES strings stand for the structures.

As usually defined, the IC50 is the point on the concentration scale where inhibition reaches its midpoint. As to `CO[C@H]1O[C@H](COS(=O)(=O)O)[C@@H](O[C@@H]2O[C@@H](C(=O)O)[C@@H](O[C@H]3O[C@H](COS(=O)(=O)O)[C@@H](O[C@@H]4O[C@H](C(=O)O)[C@@H](O[C@H]5O[C@H](COS(=O)(=O)O)[C@@H](O)[C@H](O)[C@H]5NS(=O)(=O)O)[C@H](O)[C@H]4O)[C@H](OS(=O)(=O)O)[C@H]3NS(=O)(=O)O)[C@H](O)[C@H]2OS(=O)(=O)O)[C@H](O)[C@H]1NS(=O)(=O)O` [Arixtra], the “APTT” value in assay [1] (150 μg/mL stock, 300 μL in 2.7 mL citrated human plasma, saline control 31.2 s) amounted to 78.3 ± 0.4 s. Also, the “effect on APTT and PT for clotting compared to the saline control” value in assay [1] (same concentration, citrated human plasma) was “increased only the APTT”. The “PT” value in assay [2] turned out to be 15.1 ± 0.3 s. Moreover, in assay [3], the IC50 is 11 ± 0.1 nM. The “anti-FIIa activity” value in assay [4] is “no appreciable activity”.
